In brackets after ≈: the same amount, converted by molar mass. Read-outs that look alike come from different tables or passages of the source.
What was measured:
[1] = conjugate acid of the base, cited from earlier work
[2] = formed cation, cited from earlier work; for Volume: derived from the literature
[3] = Solubility in water of formula (I) compounds in the presence of different bases (Example 2); settings: for relative solubility, 1,1,3,3-Tetramethyl guanidine: 1.2 mol/L 1,1,3,3-Tetramethyl guanidine; for relative solubility, (NH3)aq: 1.2 mol/L (NH3)aq; for relative solubility, CsOH: 1.2 mol/L CsOH; for relative solubility, KOH: 1.2 mol/L KOH; for relative solubility, LiOH: 1.2 mol/L LiOH; for relative solubility, N-Ethyl pyrrolidine: 1.2 mol/L N-Ethyl pyrrolidine; for relative solubility, NEt3: 1.2 mol/L NEt3; for relative solubility, NMe4OH: 1.2 mol/L NMe4OH; for relative solubility, PBu4OH: 1.2 mol/L PBu4OH; for relative solubility, RbOH: 1.2 mol/L RbOH; for solubility: aqueous NaOH solution, aqueous buffer
[4] = physchem; settings: aqueous buffer
[5] = Chemical compatibility of bases with the posolyte: SOC of ferricyanide solution by linear voltammetry; assay type: physicochemical; settings: 0.5 mol/L ferricyanide, 0.1 mol/L compound, pH about 13, 7 days in sealed flask
[6] = physchem; settings: aqueous buffer; remark: listed apart in the source
[7] = literature (Charlot) or predicted by COSMO-RS
[8] = footnote b, hexa-coordinate cation within a crystal (Shannon 1976)
[9] = relative to solubility in 1 mol/L NaOH
[10] = footnote a (Hall, J. Amer. Chem. Soc 1957)

C1CCC2=NCCCN2CC1 [DBU, 1,8-diazabicyclo[5.4.0]undec-7-ene]
pKa [1, 7]: 13.5

[Na+].[OH-] [Sodium hydroxide]
Volume [2]: 4.4 Å^3
Radius [2, 8]: 1.02^b Å

O=C(O)c1ccc2c(c1)C(=O)c1ccccc1C2=O
relative solubility, 1,1,3,3-Tetramethyl guanidine [3, 9]: ×4100
relative solubility, (NH3)aq [3, 9]: ×50
relative solubility, CsOH [3, 9]: ×70
relative solubility, KOH [3, 9]: ×10
relative solubility, LiOH [3, 9]: ×14
relative solubility, N-Ethyl pyrrolidine [3, 9]: ×2000
relative solubility, NEt3 [3, 9]: ×2000
relative solubility, NMe3 ([3]; 1.2 mol/L NMe3, relative to solubility in 1 mol/L NaOH): ×2000
relative solubility, NMe4OH [3, 9]: ×3700
relative solubility, PBu4OH [3, 9]: ×4100
relative solubility, RbOH [3, 9]: ×150
solubility [3]: 0.25 mM

CCN(C)CC [Methyl, diethyl amine, diethylmethylamine]
pKa [1, 10]: 10.3^a

CCCCCCCCCCCC[N+](C)(C)CCCCCCCCCCCC [Didodecyl, dimethyl ammonium, didodecyldimethylammonium hydroxide]
pKa [1, 7]: 14

C[N+]1(C)CCCC1.[OH-] [N,N-Dimethyl pyrrolidinium, N,N-dimethylpyrrolidinium hydroxide]
pKa [1, 7]: 14

O=C1c2ccccc2C(=O)c2c1ccc(O)c2O [alizarin]
solubility [4]: 23 mM (≈ 5520 µg/mL)

C[n+]1ccccc1.[OH-] [N-Methyl pyridinium, N-methylpyridinium hydroxide]
pKa [1, 7]: 14

CN1CCCC1 [N-Methyl pyrrolidine, N-methylpyrrolidine]
pKa [1, 10]: 10.5^a

C[N+]1(C)CCCCC1.[OH-] [N,N-Dimethyl piperidinium, N,N-dimethylpiperidinium hydroxide]
pKa [1, 7]: 14

[OH-].[Rb+] [Rubidium hydroxide]
Volume [2]: 14.7 Å^3
Radius [2, 8]: 1.52^b Å

CCCCCCCCCCCCCCCC[N+](C)(C)C [Trimethyl, cetyl ammonium, trimethyl cetylammonium hydroxide]
pKa [1, 7]: 14

C[N+](C)(C)Cc1ccccc1.[OH-] [Tetramethyl, benzyl ammonium, trimethyl benzylammonium hydroxide]
pKa [1, 7]: 14

C[N+](C)(C)CCO.[OH-] [CholineOH, choline hydroxide]
SOC after a contact time of 7 days with ferricyanide [5]: 82.7%

[K+].[OH-] [Potassium hydroxide]
Volume [2]: 11.0 Å^3
Radius [2, 8]: 1.38^b Å

CN(C)C(=N)N(C)C [1,1,3,3-Tetramethyl guanidine, 1,1,3,3-tetramethylguanidine]
pKa [1, 7]: 13.0

[Cs+].[OH-] [Caesium hydroxide]
Volume [2]: 19.5 Å^3
Radius [2, 8]: 1.67^b Å

O=C(O)[C@@H]1CCCN1 [proline]
SOC after a contact time of 7 days with ferricyanide [5]: 77.7%

[Li+].[OH-] [Lithium hydroxide]
Volume [2]: 1.8 Å^3
Radius [2, 8]: 0.76^b Å

O=C1c2ccccc2C(=O)c2c(O)ccc(O)c21 [drawing 31, quinizarin]
relative solubility, 1,1,3,3-Tetramethyl guanidine [3, 9]: ×82
relative solubility, (NH3)aq [3, 9]: ×3
relative solubility, CsOH [3, 9]: ×32
relative solubility, DBU ([3]; 1.2 mol/L DBU, relative to solubility in 1 mol/L NaOH): ×234
relative solubility, KOH [3, 9]: ×8
relative solubility, LiOH [3, 9]: ×0.03
relative solubility, N-Ethyl pyrrolidine [3, 9]: ×13
relative solubility, N-Methyl pyrrolidine ([3]; 1.2 mol/L N-Methyl pyrrolidine, relative to solubility in 1 mol/L NaOH): ×7
relative solubility, NEt3 [3, 9]: ×3
relative solubility, NMe4OH [3, 9]: ×213
relative solubility, PBu4OH [3, 9]: ×211
relative solubility, RbOH [3, 9]: ×16
relative solubility, Trimethyl, benzyl ammonium ([3]; 1.2 mol/L Trimethyl, benzyl ammonium, relative to solubility in 1 mol/L NaOH): ×255
solubility [3]: 3.8 mM

CCN1CCCC1 [N-Ethyl pyrrolidine, N-ethylpyrrolidine]
pKa [1, 7]: 10.7

CCN1CCCCC1 [N-Ethyl piperidine, N-ethylpiperidine]
pKa [1, 10]: 10.4^a

O=C1c2ccccc2C(=O)c2c(O)ccc(O)c21 [quinizarin]
solubility [6]: 31 mM (≈ 7450 µg/mL)

CCN(C)C [Dimethyl, ethyl amine, ethyldimethylamine]
pKa [1, 10]: 10.0^a

C[N+](C)(C)C [Tetramethyl ammonium, tetramethylammonium hydroxide]
pKa [1, 7]: 14

N [Ammonia]
Volume [2]: 13.6 Å^3
Radius ([2]; footnote c (Sidey 2016)): 1.48^c Å
